One test relates to DC-associated HA. In words: Binding of biotinylated peptide to DC surfaces. As to conditions: biotinylated form. As for the experimental part: FIGS. 8B-D. Synthesis and surface expression of HA by DC. (B) XS106 DC were labeled with ^3H-glucosamine and then examined for the incorporation of hyaluronidase-sensitive radioactivities (means+/−s.e.m.; n=5) into the indicated subcellular fractions. (C) XS106 DC were incubated with biotinylated Pep-1 or RP and then with PE-conjugated streptavidin (filed histograms) (Mummert et al. J. Exp. Med. 192:769-779, 2000) or bovine testis hyaluronidase. Baseline staining levels with PE-streptavidin alone are shown with open histograms. (D) The indicated DC preparations were examined for binding of biotinylated Pep-1 (filled) and RP (open). Peptide binding to splenic DC and bone marrow-DC was examined within the CD11c^+ populations.

Test [1] deals with B16-F10 melanoma cells. The experiment in a line: In vitro growth of B16-F10 melanoma cells (3H-thymidine uptake). Type of test: cell-based, mouse. The note with it: 3H-thymidine uptake at 24 hr. The procedure:
(§1) FIGS. 4A-C. Impact of Pep-1 on lung metastasis of melanoma. (FIG. 4A) B16-F10 melanoma cells were suspended (4×10^5 cells/ml) in PBS containing Pep-1 monomer (2 or 3 mg/ml) (circles) or 2% DMSO alone (triangles). C57BL/6 mice received i.v. injection of these cell suspensions (500 μl/animal) and were examined for survival. Data shown are the cumulative survival curves from four independent experiments (n=37 for Pep-1 and n=20 for PBS control). […] (FIG. 4B) B16-F10 melanoma cells (1×10^5 cells/animal) were s.c. injected into the back of C57BL/6 mice. Pep-1 or RP (40 μg/injection) was injected locally into the tumor inoculation sites 0. 3. and 6 days after tumor injection. Data shown are the means+/−s.e.m. (n=10) of tumor sizes and tumor weights measured 10 days after tumor inoculation. (FIG. 4C) B16-F10 melanoma cells (2×10^5 cells/well) were cultured in the presence of the indicated concentrations of Pep-1 (closed circles) or PR (open circles). Data shown are the means+/−s.e.m.(n=3) of ^3H-thymidine uptake at 24 hr.

In test [2] the test system is B16-F10 melanoma cells. In words: Local growth of s.c. inoculated B16-F10 melanoma. Type of test: in vivo, C57BL/6 mice. The note with it: 40 μg/injection locally, days 0, 3, 6; measured day 10. As for the experimental part: as §1
A further test deals with DO11.10 T cells. The experiment in a line: DO11.10 T cell proliferation triggered by splenic DC and OVA peptide (3H-thymidine uptake). Type of test: cell-based, mice. As for the experimental part: FIGS. 7A-C. Impact of tetrameric LIP on cytokine production during antigen presentation. (FIG. 7A) XS52 DC (0.2×10^6 cells/well) were cultured in the presence or absence of the KLH-reactive CD4^+ Thl clone HDK-1 (0.2×10^6 cells/well) and/or KLH (100 μg/ml). Culture supernatants collected at 24 hrs were examined for the indicated cytokines by ELISA. Data shown are the means+/−s.e.m. from triplicate samples. (FIG. 7B) XS52 DC and HDK-1 T cells were co-cultured with KLH in the presence of the indicated concentrations of Pep-1. Culture supernatants collected at 24 hrs were examined for the indicated cytokines by ELISA. (FIG. 7C) CD4^+ T cells isolated from DO11.10 transgenic mice (5×10^4 cells/well) were co-cultured with the indicated numbers of splenic DC isolated from BALB/c mice and the OVA peptide (2 μg/ml) in the presence of 500 μg/ml of Pep-1 (open circles), RP (triangles), or DMSO alone (closed circles). Co-cultures of CD4^+ T cells and DC in the absence of OVA peptide served as a control (square). All the cultures were examined for ^3H-thymidine uptake on Day 3. […]
FIGS. 9A-G. DC-associated HA and DC-dependent T cell proliferation. […] Statistically significant differences assessed by a two-tailed Student's t-test for comparing two groups or by analysis of variance (ANOVA) followed by LSD for multiple comparisons are indicated by asterisks (*P<0.05, **P<0.01). […]

On to GAHWQFNALTVR [Pep-1], for which, in the test with DC-associated HA, the “binding to other DC preparations (XS52 DC, splenic DC, bone marrow-derived DC)” value is on record as “bound to all other tested DC preparations” and the “binding to surfaces of XS106 DC” value is given as “bound to the surfaces of XS106 DC”. Further, the “binding to DC after hyaluronidase pretreatment” value in the test on DC-associated HA (hyaluronidase pretreatment of DC) is “abolished almost completely”. The “effect on in vitro growth of B16-F10 melanoma cells” value in the test with B16-F10 melanoma cells [1] is recorded as “no apparent effects”. Further, in the test on B16-F10 melanoma cells [2], the “effect on local growth in animals following s.c. inoculation” value is “no apparent effects”. In the test with DO11.10 T cells (300 μM (FIG. 9B)), the “inhibition of DC-dependent, antigen-specific T cell proliferation” value was “inhibited”. Further, in the test on DO11.10 T cells (500 μg/ml (FIG. 7C)), the “inhibition of activation of naive CD4+ T cells by splenic DC” value is “inhibited the activation of immunologically naive CD4+ T cells”.
